# From ChEMBL document CHEMBL3112450, “Synthesis and in vitro antitumor evaluation of primary amine substituted quinazoline linked benzimidazole” (Bioorg Med Chem Lett, 2014)
# Test system: M14
# Experiment: Cytotoxicity against human M14 cells assessed as cell growth at 10^-5 M after 48 hrs by SRB assay
# Type: functional
# Details: M14, 48 h, read-out: Activity
row,SMILES,growth at 10 µM [%]
1,C=CCn1c(C)nc2ccc(Nc3nc(Nc4ccc(F)cc4)nc4ccccc34)cc21,8

# Test system: MOLT-4
# Experiment: Cytotoxicity against human MOLT4 cells assessed as cell growth at 10^-5 M after 48 hrs by SRB assay
# Type: functional
# Details: MOLT-4, 48 h, read-out: Activity
row,SMILES,growth at 10 µM [%]
1,C=CCn1c(C)nc2ccc(Nc3nc(Nc4ccc(F)cc4)nc4ccccc34)cc21,-18

# Test system: MDA-MB-435
# Experiment: Cytotoxicity against human MDA-MB-435 cells assessed as cell growth at 10^-4 M after 48 hrs by SRB assay
# Type: functional
# Details: MDA-MB-435, 48 h, read-out: Activity
row,SMILES,growth at 100 µM [%]
1,C=CCn1c(C)nc2ccc(Nc3nc(Nc4ccc(F)cc4)nc4ccccc34)cc21,-53

# Test system: NCI-H522
# Experiment: Cytotoxicity against human NCI-H522 cells assessed as cell growth at 10^-5 M after 48 hrs by SRB assay
# Type: functional
# Details: NCI-H522, 48 h, read-out: Activity
row,SMILES,growth at 10 µM [%]
1,C=CCn1c(C)nc2ccc(Nc3nc(Nc4ccc(F)cc4)nc4ccccc34)cc21,8

# Test system: SNB-19
# Experiment: Cytotoxicity against human SNB19 cells assessed as cell growth at 10^-6 M after 48 hrs by SRB assay
# Type: functional
# Details: SNB-19, 48 h, read-out: Activity
row,SMILES,growth at 1 µM [%]
1,C=CCn1c(C)nc2ccc(Nc3nc(Nc4ccc(F)cc4)nc4ccccc34)cc21,86

# Test system: IGROV-1
# Experiment: Cytotoxicity against human IGROV1 cells assessed as cell growth at 10^-5 M after 48 hrs by SRB assay
# Type: functional
# Details: IGROV-1, 48 h, read-out: Activity
row,SMILES,growth at 10 µM [%]
1,C=CCn1c(C)nc2ccc(Nc3nc(Nc4ccc(F)cc4)nc4ccccc34)cc21,39

# Test system: OVCAR-8
# Experiment: Cytotoxicity against human OVCAR8 cells assessed as cell growth at 10^-4 M after 48 hrs by SRB assay
# Type: functional
# Details: OVCAR-8, 48 h, read-out: Activity
row,SMILES,growth at 100 µM [%]
1,C=CCn1c(C)nc2ccc(Nc3nc(Nc4ccc(F)cc4)nc4ccccc34)cc21,-26

# Test system: K562
# Experiment: Cytotoxicity against human K562 cells assessed as cell growth at 10^-4 M after 48 hrs by SRB assay
# Type: functional
# Details: K562, 48 h, read-out: Activity
row,SMILES,growth at 100 µM [%]
1,C=CCn1c(C)nc2ccc(Nc3nc(Nc4ccc(F)cc4)nc4ccccc34)cc21,-41

# Test system: not listed separately
# Experiment: Cytotoxicity against human UO31 cells assessed as cell growth at 10^-5 M after 48 hrs by SRB assay
# Type: functional
# Details: UO-31, 48 h, read-out: Activity
row,SMILES,growth at 10 µM [%]
1,C=CCn1c(C)nc2ccc(Nc3nc(Nc4ccc(F)cc4)nc4ccccc34)cc21,33

# Test system: 786-0
# Experiment: Cytotoxicity against human 786-0 cells assessed as cell growth at 10^-6 M after 48 hrs by SRB assay
# Type: functional
# Details: 786-0, 48 h, read-out: Activity
row,SMILES,growth at 1 µM [%]
1,C=CCn1c(C)nc2ccc(Nc3nc(Nc4ccc(F)cc4)nc4ccccc34)cc21,96

# Test system: not listed separately
# Experiment: Cytotoxicity against human OVCAR5 cells assessed as cell growth at 10^-5 M after 48 hrs by SRB assay
# Type: functional
# Details: OVCAR-5, 48 h, read-out: Activity
row,SMILES,growth at 10 µM [%]
1,C=CCn1c(C)nc2ccc(Nc3nc(Nc4ccc(F)cc4)nc4ccccc34)cc21,59

# Test system: MDA-MB-435
# Experiment: Cytotoxicity against human MDA-MB-435 cells assessed as cell growth at 10^-5 M after 48 hrs by SRB assay
# Type: functional
# Details: MDA-MB-435, 48 h, read-out: Activity
row,SMILES,growth at 10 µM [%]
1,C=CCn1c(C)nc2ccc(Nc3nc(Nc4ccc(F)cc4)nc4ccccc34)cc21,24

# Test system: SK-MEL-2
# Experiment: Cytotoxicity against human SK-MEL-2 cells assessed as cell growth at 10^-6 M after 48 hrs by SRB assay
# Type: functional
# Details: SK-MEL-2, 48 h, read-out: Activity
row,SMILES,growth at 1 µM [%]
1,C=CCn1c(C)nc2ccc(Nc3nc(Nc4ccc(F)cc4)nc4ccccc34)cc21,96

# Test system: NCI-H226
# Experiment: Cytotoxicity against human NCI-H226 cells assessed as cell growth at 10^-5 M after 48 hrs by SRB assay
# Type: functional
# Details: NCI-H226, 48 h, read-out: Activity
row,SMILES,growth at 10 µM [%]
1,C=CCn1c(C)nc2ccc(Nc3nc(Nc4ccc(F)cc4)nc4ccccc34)cc21,-62

# Test system: not listed separately
# Experiment: Cytotoxicity against human NCI-ADR-RES cells assessed as cell growth at 10^-5 M after 48 hrs by SRB assay
# Type: functional
# Details: read-out: Activity
row,SMILES,growth at 10 µM [%]
1,C=CCn1c(C)nc2ccc(Nc3nc(Nc4ccc(F)cc4)nc4ccccc34)cc21,20

# Test system: HCC 2998
# Experiment: Cytotoxicity against human HCC2998 cells assessed as cell growth at 10^-5 M after 48 hrs by SRB assay
# Type: functional
# Details: HCC 2998, 48 h, read-out: Activity
row,SMILES,growth at 10 µM [%]
1,C=CCn1c(C)nc2ccc(Nc3nc(Nc4ccc(F)cc4)nc4ccccc34)cc21,47

# Test system: SF-295
# Experiment: Cytotoxicity against human SF295 cells assessed as cell growth at 10^-5 M after 48 hrs by SRB assay
# Type: functional
# Details: SF-295, 48 h, read-out: Activity
row,SMILES,growth at 10 µM [%]
1,C=CCn1c(C)nc2ccc(Nc3nc(Nc4ccc(F)cc4)nc4ccccc34)cc21,31.4

# Test system: MDA-MB-231
# Experiment: Cytotoxicity against human MDA-MB-231 cells assessed as cell growth at 10^-5 M after 48 hrs by SRB assay
# Type: functional
# Details: MDA-MB-231, 48 h, read-out: Activity
row,SMILES,growth at 10 µM [%]
1,C=CCn1c(C)nc2ccc(Nc3nc(Nc4ccc(F)cc4)nc4ccccc34)cc21,-8

# Test system: SK-MEL-5
# Experiment: Cytotoxicity against human SK-MEL-5 cells after 48 hrs by SRB assay
# Type: functional
# Details: SK-MEL-5, 48 h
SMILES,GI50 [nM],LC50 [nM],TGI [nM]
C=CCn1c(C)nc2ccc(Nc3nc(Nc4ccc(F)cc4)nc4ccccc34)cc21,1360,5140,2640

# Test system: DU-145
# Experiment: Cytotoxicity against human DU145 cells assessed as cell growth at 10^-7 M after 48 hrs by SRB assay
# Type: functional
# Details: DU-145, 48 h, read-out: Activity
row,SMILES,growth at 0.1 µM [%]
1,C=CCn1c(C)nc2ccc(Nc3nc(Nc4ccc(F)cc4)nc4ccccc34)cc21,98

# Test system: not listed separately
# Experiment: Cytotoxicity against human NCI-ADR-RES cells assessed as cell growth at 10^-7 M after 48 hrs by SRB assay
# Type: functional
# Details: read-out: Activity
row,SMILES,growth at 0.1 µM [%]
1,C=CCn1c(C)nc2ccc(Nc3nc(Nc4ccc(F)cc4)nc4ccccc34)cc21,97

# Test system: MDA-MB-468
# Experiment: Cytotoxicity against human MDA-MB-468 cells assessed as cell growth at 10^-7 M after 48 hrs by SRB assay
# Type: functional
# Details: MDA-MB-468, 48 h, read-out: Activity
row,SMILES,growth at 0.1 µM [%]
1,C=CCn1c(C)nc2ccc(Nc3nc(Nc4ccc(F)cc4)nc4ccccc34)cc21,74

# Test system: CAKI-1
# Experiment: Cytotoxicity against human Caki1 cells assessed as cell growth at 10^-8 M after 48 hrs by SRB assay
# Type: functional
# Details: CAKI-1, 48 h, read-out: Activity
row,SMILES,growth at 0.01 µM [%]
1,C=CCn1c(C)nc2ccc(Nc3nc(Nc4ccc(F)cc4)nc4ccccc34)cc21,100

# Test system: MDA-MB-468
# Experiment: Cytotoxicity against human MDA-MB-468 cells assessed as cell growth at 10^-5 M after 48 hrs by SRB assay
# Type: functional
# Details: MDA-MB-468, 48 h, read-out: Activity
row,SMILES,growth at 10 µM [%]
1,C=CCn1c(C)nc2ccc(Nc3nc(Nc4ccc(F)cc4)nc4ccccc34)cc21,-90

# Test system: HOP-92
# Experiment: Cytotoxicity against human HOP92 cells assessed as cell growth at 10^-8 M after 48 hrs by SRB assay
# Type: functional
# Details: HOP-92, 48 h, read-out: Activity
row,SMILES,growth at 0.01 µM [%]
1,C=CCn1c(C)nc2ccc(Nc3nc(Nc4ccc(F)cc4)nc4ccccc34)cc21,95

# Test system: MCF7
# Experiment: Cytotoxicity against human MCF7 cells assessed as cell growth at 10^-5 M after 48 hrs by SRB assay
# Type: functional
# Details: MCF7, 48 h, read-out: Activity
row,SMILES,growth at 10 µM [%]
1,C=CCn1c(C)nc2ccc(Nc3nc(Nc4ccc(F)cc4)nc4ccccc34)cc21,-63

# Test system: not listed separately
# Experiment: Cytotoxicity against human UACC257 cells assessed as cell growth at 10^-5 M after 48 hrs by SRB assay
# Type: functional
# Details: UACC-257, 48 h, read-out: Activity
row,SMILES,growth at 10 µM [%]
1,C=CCn1c(C)nc2ccc(Nc3nc(Nc4ccc(F)cc4)nc4ccccc34)cc21,66

# Test system: U-251
# Experiment: Cytotoxicity against human U251 cells assessed as cell growth at 10^-5 M after 48 hrs by SRB assay
# Type: functional
# Details: U-251, 48 h, read-out: Activity
row,SMILES,growth at 10 µM [%]
1,C=CCn1c(C)nc2ccc(Nc3nc(Nc4ccc(F)cc4)nc4ccccc34)cc21,17

# Test system: NCI-H460
# Experiment: Cytotoxicity against human NCI-H460 cells assessed as cell growth at 10^-5 M after 48 hrs by SRB assay
# Type: functional
# Details: NCI-H460, 48 h, read-out: Activity
row,SMILES,growth at 10 µM [%]
1,C=CCn1c(C)nc2ccc(Nc3nc(Nc4ccc(F)cc4)nc4ccccc34)cc21,11

# Test system: RPMI-8226
# Experiment: Cytotoxicity against human RPMI8226 cells assessed as cell growth at 10^-6 M after 48 hrs by SRB assay
# Type: functional
# Details: RPMI-8226, 48 h, read-out: Activity
row,SMILES,growth at 1 µM [%]
1,C=CCn1c(C)nc2ccc(Nc3nc(Nc4ccc(F)cc4)nc4ccccc34)cc21,84

# Test system: HCT-116
# Experiment: Cytotoxicity against human HCT116 cells assessed as cell growth at 10^-5 M after 48 hrs by SRB assay
# Type: functional
# Details: HCT-116, 48 h, read-out: Activity
row,SMILES,growth at 10 µM [%]
1,C=CCn1c(C)nc2ccc(Nc3nc(Nc4ccc(F)cc4)nc4ccccc34)cc21,-11

# Test system: KM12
# Experiment: Cytotoxicity against human KM12 cells assessed as cell growth at 10^-4 M after 48 hrs by SRB assay
# Type: functional
# Details: KM12, 48 h, read-out: Activity
row,SMILES,growth at 100 µM [%]
1,C=CCn1c(C)nc2ccc(Nc3nc(Nc4ccc(F)cc4)nc4ccccc34)cc21,-79

# Test system: SF-539
# Experiment: Cytotoxicity against human SF539 cells assessed as cell growth at 10^-7 M after 48 hrs by SRB assay
# Type: functional
# Details: SF-539, 48 h, read-out: Activity
row,SMILES,growth at 0.1 µM [%]
1,C=CCn1c(C)nc2ccc(Nc3nc(Nc4ccc(F)cc4)nc4ccccc34)cc21,98

# Test system: KM12
# Experiment: Cytotoxicity against human KM12 cells assessed as cell growth at 10^-5 M after 48 hrs by SRB assay
# Type: functional
# Details: KM12, 48 h, read-out: Activity
row,SMILES,growth at 10 µM [%]
1,C=CCn1c(C)nc2ccc(Nc3nc(Nc4ccc(F)cc4)nc4ccccc34)cc21,22

# Test system: UACC-62
# Experiment: Cytotoxicity against human UACC62 cells assessed as cell growth at 10^-5 M after 48 hrs by SRB assay
# Type: functional
# Details: UACC-62, 48 h, read-out: Activity
row,SMILES,growth at 10 µM [%]
1,C=CCn1c(C)nc2ccc(Nc3nc(Nc4ccc(F)cc4)nc4ccccc34)cc21,-69

# Test system: SNB-19
# Experiment: Cytotoxicity against human SNB19 cells assessed as cell growth at 10^-5 M after 48 hrs by SRB assay
# Type: functional
# Details: SNB-19, 48 h, read-out: Activity
row,SMILES,growth at 10 µM [%]
1,C=CCn1c(C)nc2ccc(Nc3nc(Nc4ccc(F)cc4)nc4ccccc34)cc21,48

# Test system: TK-10
# Experiment: Cytotoxicity against human TK10 cells assessed as cell growth at 10^-8 M after 48 hrs by SRB assay
# Type: functional
# Details: TK-10, 48 h, read-out: Activity
row,SMILES,growth at 0.01 µM [%]
1,C=CCn1c(C)nc2ccc(Nc3nc(Nc4ccc(F)cc4)nc4ccccc34)cc21,99
